This assay has as its target c-MET (Homo sapiens, UniProt P08581). The assay can be described thus: Ki determination for the inhibition of c-MET (standard radiometric 33P-ATP kinase assay, polyE4Y substrate). The format is biochemical. As to conditions: 1.0 nM c-Met, 35 μM ATP, 0.5 mg/mL polyE4Y, 20 min; competitive tight-binding fit. In short, it runs like this: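 Radiometric assay of 33P transfer from 33P-ATP (35 μM) to polyE4Y (0.5 mg/mL) by 1.0 nM c-Met in 100 mM HEPES pH 7.5, 10 mM MgCl2, 25 mM NaCl, 0.01% BSA, 1 mM DTT. TCA-quenched after 20 min, filter-captured, scintillation-counted; Ki fitted to a competitive tight-binding model.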

For orientation: Ki means a dissociation constant, usually derived from enzyme kinetics or from competition with a known ligand. A high value points to weaker binding.

Structures are written as SMILES.

Chain of c-MET (P08581 25-1390): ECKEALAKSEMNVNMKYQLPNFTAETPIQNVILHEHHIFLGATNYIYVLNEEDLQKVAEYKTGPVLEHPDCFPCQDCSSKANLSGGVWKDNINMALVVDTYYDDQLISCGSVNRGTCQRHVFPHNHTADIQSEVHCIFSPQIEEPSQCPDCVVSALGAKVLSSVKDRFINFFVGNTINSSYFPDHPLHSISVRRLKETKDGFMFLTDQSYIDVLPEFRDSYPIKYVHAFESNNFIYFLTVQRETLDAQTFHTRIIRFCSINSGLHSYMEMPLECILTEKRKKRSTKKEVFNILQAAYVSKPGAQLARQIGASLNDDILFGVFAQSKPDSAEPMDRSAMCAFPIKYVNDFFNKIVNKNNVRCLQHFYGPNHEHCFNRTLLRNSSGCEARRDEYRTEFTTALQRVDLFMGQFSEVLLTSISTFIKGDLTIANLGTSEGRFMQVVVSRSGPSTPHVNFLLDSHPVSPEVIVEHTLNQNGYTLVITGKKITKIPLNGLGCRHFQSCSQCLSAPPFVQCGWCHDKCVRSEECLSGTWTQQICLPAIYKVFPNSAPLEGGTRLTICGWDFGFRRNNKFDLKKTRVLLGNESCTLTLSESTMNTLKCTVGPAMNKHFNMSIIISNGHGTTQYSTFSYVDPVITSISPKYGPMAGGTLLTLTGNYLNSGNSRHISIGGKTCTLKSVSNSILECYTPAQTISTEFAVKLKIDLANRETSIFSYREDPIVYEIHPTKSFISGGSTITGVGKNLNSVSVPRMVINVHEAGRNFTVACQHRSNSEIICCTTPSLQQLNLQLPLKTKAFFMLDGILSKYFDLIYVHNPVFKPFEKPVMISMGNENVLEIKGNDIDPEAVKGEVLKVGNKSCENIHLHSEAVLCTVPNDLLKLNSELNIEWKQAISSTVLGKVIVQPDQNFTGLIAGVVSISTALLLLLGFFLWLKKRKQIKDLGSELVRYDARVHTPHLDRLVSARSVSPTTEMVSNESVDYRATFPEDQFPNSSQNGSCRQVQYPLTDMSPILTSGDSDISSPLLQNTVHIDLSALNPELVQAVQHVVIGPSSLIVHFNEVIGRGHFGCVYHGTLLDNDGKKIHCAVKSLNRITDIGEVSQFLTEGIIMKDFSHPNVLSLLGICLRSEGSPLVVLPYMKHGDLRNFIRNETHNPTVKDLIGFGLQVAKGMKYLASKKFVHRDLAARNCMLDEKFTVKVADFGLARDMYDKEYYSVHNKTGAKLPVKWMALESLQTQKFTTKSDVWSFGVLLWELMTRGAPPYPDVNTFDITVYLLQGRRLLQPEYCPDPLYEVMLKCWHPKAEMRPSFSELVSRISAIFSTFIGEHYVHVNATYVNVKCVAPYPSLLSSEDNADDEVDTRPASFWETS

In the case of `COC(=O)C(C)NC(=O)Nc1cccc(-c2cnc(N)c(-c3nnnn3-c3cccc(F)c3F)c2)c1` (stereo not drawn) [I-A-327], the Ki was in the range of 100 to 1000 nM. As to `CN1C[C@@H]2C[C@H]1CN2c1ccc(-c2cnc(N)c(-c3nncn3-c3cccc(F)c3F)n2)cc1` [I-A-9], the Ki is not above 100 nM. The molecule `CCN(C)Cc1ccc(-c2cnc(N)c(-c3nnnn3-c3cccc(F)c3F)c2)cc1` [I-A-149] displayed an inhibition constant Ki not above 100 nM. The molecule `Cc1c(Cl)cccc1-n1nnnc1-c1cc(-c2cccnc2)cnc1N` [I-A-551] came in with a Ki of 100 to 1000 nM. For `CC(=O)N1CC=C(c2cnc(N)c(-c3nnnn3-c3cccc(F)c3F)c2)CC1` [I-A-510], the Ki is not above 100 nM. `CC(=O)Nc1ccc(-c2cnc(N)c(-c3nncn3-c3cccc(F)c3F)n2)cc1` [I-A-11] yielded a Ki not above 100 nM. As for `Nc1ncc(-c2cccc3c2OCO3)cc1-c1nnnn1-c1cccc(F)c1F` [I-A-305], the figure is not above 100 nM; as for `CCC(=O)N1CC=C(c2cnc(N)c(-c3nnnn3-c3cccc(F)c3F)c2)CC1` [I-A-511], not above 100 nM. In the case of `COC(=O)[C@H](CC(C)C)NC(=O)Nc1ccc(-c2cnc(N)c(-c3nnnn3-c3cccc(F)c3F)c2)cc1` [I-A-330], the inhibitory constant (Ki) is 100 to 1000 nM. The result for `Nc1ncc(-c2cc(F)ccc2O)cc1-c1nnnn1-c1cccc(F)c1F` [I-A-292] reads not above 100 nM; that for `Nc1ncc(-c2cnn(C3CCNCC3)c2)cc1-c1nnnn1-c1c(F)cccc1F` [I-A-628], not above 100 nM. The result for `COc1ccc(-c2cnc(N)c(-c3nnnn3-c3cccc(F)c3F)c2)cc1OC` [I-A-309] reads not above 100 nM; that for `CN(C)S(=O)(=O)N1CCC(n2cc(-c3cnc(N)c(-c4nnnn4-c4cccc(Cl)c4F)c3)cn2)CC1` [I-A-442], not above 100 nM. In turn, `Nc1ncc(-c2cnn(C[C@@H]3CCCN3)c2)cc1-c1nnnn1-c1cccc(F)c1F` [I-A-500] returned a Ki not above 100 nM. Take `Nc1ncc(-c2ccncc2)nc1-c1nncn1-c1cccc(F)c1F` [I-A-3]: the Ki fell in the range of 100 to 1000 nM. Consider `Nc1ncc(-c2cnn(C3CCN(CC(F)F)CC3)c2)cc1-c1nncn1-c1cccc(Cl)c1F` [I-A-460], for which the Ki is not above 100 nM.

Regarding `CN(C)Cc1ccc(-c2cnc(N)c(-c3nnsc3-c3cccc(Cl)c3Cl)c2)cc1` [I-C-5], the inhibition constant Ki was not above 100 nM. For the molecule `CN1CCC[C@H]1C(=O)N1CC=C(c2cnc(N)c(-c3nnnn3-c3cccc(F)c3F)c2)CC1` [I-A-503], the inhibitory constant (Ki) is not above 100 nM. Molecule `Nc1ncc(-c2cnn(C3CCCCC3)c2)cc1-c1nnnn1-c1cccc(F)c1F` [I-A-403] came in with an inhibition constant (Ki) not above 100 nM. The result for `CC(=O)Nc1ccc(-c2cnc(N)c(-c3nnnn3-c3cccc(F)c3F)c2)c(F)c1` [I-A-126] reads not above 100 nM.

Turning to `Nc1ncc(-c2ccc(F)cc2)cc1-c1nnnn1-c1cccc(F)c1F` [I-A-223], the Ki is not above 100 nM. `Nc1ncc(-c2ccc(CN3CCOCC3)cc2)nc1-c1nnc(O)n1-c1cccc(F)c1F` [I-A-16] returned a Ki of 100 to 1000 nM. As for `CN(C)Cc1ccc(-c2cnc(N)c(-c3nn(CCO)cc3-c3cccc(Cl)c3Cl)c2)cc1` [I-B-14], the figure is 100 to 1000 nM; as for `CN1CCN(c2ccc(-c3cnc(N)c(-c4nnsc4-c4cccc(Cl)c4Cl)c3)cc2)CC1` [I-C-3], not above 100 nM. As for `Nc1ncc(-c2cnn(C(c3ccccc3)(c3ccccc3)c3ccccc3)c2)cc1-c1nnnn1-c1cccc(F)c1F` [I-A-365], the figure is 100 to 1000 nM; as for `Nc1ncc(-c2cnn(C3CCCNCC3)c2)cc1-c1nnnn1-c1cccc(F)c1F` (stereo not drawn) [I-A-428], not above 100 nM. `Nc1ncc(-c2cnn([C@@H]3CCCNC3)c2)nc1-c1nnnn1-c1cccc(F)c1F` [I-A-659] returned an inhibition constant (Ki) not above 100 nM.

For the molecule `Nc1ncc(-c2cccc(C(F)(F)F)c2)cc1-c1nnnn1-c1cccc(F)c1F` [I-A-215], the Ki is 100 to 1000 nM. The result for `CN1CCN(Cc2ccc(-c3cnc(N)c(-c4nncn4-c4cccc(F)c4F)n3)cc2)CC1` [I-A-6] reads not above 100 nM; that for `Nc1ncc(-c2ccc(C(=O)NC3CC3)cc2)cc1-c1nnnn1-c1cccc(F)c1F` [I-A-137], not above 100 nM.

(Values after patent publication US8232406B2, “c-MET protein kinase inhibitors” (Vertex Pharmaceuticals Incorporated, priority 2006, dated 2012).)
